Here are results for 2 compounds from US20140335396A1, “Microporous Membrane” (ASAHI KASEI E-MATERIALS CORPORATION, priority 2011, published 2014).

A short description of this series: Solubility in water of the surfactant. The class given is physicochemical. The note with it: water at 25° C. As to the method:
As long as the above-described surfactant adhered to a base membrane includes at least a surfactant (A) soluble in water and a surfactant (B) insoluble in water, the above-described surfactant adhered to a base membrane may also include another surfactant (i.e., a surfactant having a solubility in water of 0.1 g based on 100 g of water to 5 g based on 100 g of water.)
(7) Solubility in Water (g Per 100 g of Water)
Aliquots, each of which is 0.01 g of a surfactant, were added one by one to 100 g of water at 25° C. while stirring. The total amount of the surfactant added (g) when the solution changed from clear to opaque was taken as the degree of the solubility in water

On to `CCCCCCCC/C=C/CCCCCCCC1=NCCN1CCO` [oleyl imidazoline], for which the Solubility in water is listed as ≤ 0.1 g per 100 g of water.
For polyoxyethylene alkyl ether, the Solubility in water is ≥ 5 g per 100 g of water.
